Patent publication US6699833B1, “Pharmaceutical formulations for sustained drug delivery” (Praecis Pharmaceuticals, Inc., priority 1996, dated 2004)
Where a SMILES comes first, the peptide text is derived from it. [ ]: non-standard residue; d: D form. dPhe(4-Cl) = N[C@H](Cc1ccc(Cl)cc1)C(=O)O; d2Nal = N[C@H](Cc1ccc2ccccc2c1)C(=O)O; Lys(iPr) = CC(C)NCCCC[C@H](N)C(=O)O; NMeY = CN[C@@H](Cc1ccc(O)cc1)C(=O)O; d3Pal = N[C@H](Cc1cccnc1)C(=O)O

Settings: rat, in vivo
Method: On day 30, the LHRH agonist Lupron™ (leuprolide) was injected into the rats. Plasma testosterone levels (in ng/ml; indicated by the open boxes in FIG. 2) were determined at various time points as a measure of the activity of the LHRH antagonist in the animal. Plasma levels of PPI-149 (in ng/ml) were also monitored in the animals (indicated by the closed boxes in FIG. 2).

day beyond which PPI-149 could not be detected in plasma: ~8 days
Compound: CC(=O)N[C@H](Cc1ccc2ccccc2c1)C(=O)N[C@H](Cc1ccc(Cl)cc1)C(=O)N[C@H](Cc1cccnc1)C(=O)N[C@@H](CO)C(=O)N(C)[C@@H](Cc1ccc(O)cc1)C(=O)N[C@H](CC(N)=O)C(=O)N[C@@H](CC(C)C)C(=O)N[C@@H](CCCCNC(C)C)C(=O)N1CCC[C@H]1C(=O)N[C@H](C)C(N)=O [PPI-149, Ac-D-Nal^1,4-Cl-D-Phe^2, D-Pal^3, N-Me-Tyr^5, D-Asn^6, Lys(iPr)^8, D-Ala^10-LHRH] (Ac-[d2Nal][dPhe(4-Cl)][d3Pal]S[NMeY][dN]L[Lys(iPr)]P[dA]-NH2)
